Data reported in article PMC6178189 (Oxidative Medicine and Cellular Longevity, 2018).
Converted amounts (≈) assume the structure as drawn.

Biological target: T1, rat intestinal α-glucosidase
T1 construct: gene Si; crude saline extract of commercial rat intestinal acetone powder (Sigma-Aldrich); mixed brush-border alpha-glucosidases, not purified
Assay: p-nitrophenol release from pNPG, […] nm
Format: biochemical
Conditions: 5 mM p-nitrophenyl glucopyranoside (maltose or sucrose also named in method; substrate of the table value not told), 0.1 M phosphate pH 6.9, 37°C, 30 min, crude enzyme

## C[C@H]1O[C@H](O[C@H]2[C@H](O)[C@@H](O)[C@@H](O[C@H]3[C@H](O)[C@@H](O)C(O)O[C@@H]3CO)O[C@@H]2CO)[C@H](O)[C@@H](O)[C@@H]1N[C@H]1C=C(CO)[C@@H](O)[C@H](O)[C@H]1O (stereo partly shown) [acarbose]
  IC50 (mg/mL) / α-Glucosidase: 1.63 ± 0.10 mg/mL (≈ 2520 µM)
